In US20040110771A1, “7-(r)-aminotriazolopyrimidines, the production thereof and use of the same for combatting phytopathogenic fungi” (priority 2000, published 2004):

Assays:
Assay type in all cases: in vivo
Puccinia recondita = assay: Curative activity against brown rust of wheat caused by Puccinia recondita; conditions: curative spray 24 h after inoculation, wheat seedlings "Kanzler", 7 days
Procedure: (§1) The active compounds were prepared separately or jointly as a 10% strength emulsion in a mixture of 70% by weight of cyclohexanone, 20% by weight of Nekanil® LN (Lutensol® AP6, wetting agent having emulsifying and dispersing action based on ethoxylated alkylphenols) and 10% by weight of Wettol® EM (nonionic emulsifier based on ethoxylated castor oil) and diluted with water to the desired concentration.
Leaves of potted wheat seedlings of the cultivar “Kanzler” were dusted with spores of brown rust (Puccinia recondita). The pots were then placed in a chamber with high atmospheric humidity (90 to 95%) at 20-22° C. for 24 hours. During this period, the spores germinated and the germinal tubes penetrated into the leaf tissue. The following day, the infected plants were sprayed to runoff point with an aqueous preparation of active compound which had been prepared from a stock solution made of 10% of active compound, 85% of cyclohexanone and 5% of emulsifier. After the spray coating had dried on, the test plants were cultivated in a greenhouse at 20-22° C. and 65-70% relative atmospheric humidity for 7 days. The extent of the rust fungus development on the leaves was then determined.

[1] = system: Blumeria graminis forma specialis tritici; assay: Activity against mildew of wheat caused by Blumeria graminis forma specialis tritici; conditions: wheat seedlings "Kanzler", dusted with spores 24 h after spraying, 7 days
How it was run: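 Compound, emulsified then diluted in water, sprayed to runoff onto leaves of potted wheat seedlings cv. Kanzler; inoculated with Blumeria graminis f. sp. tritici spores 24 h after the coating dried. Plants kept in greenhouse at 20-24° C., 60-90% relative humidity; mildew scored visually after 7 days as % infected leaf area.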

Septoria tritici = assay: Protective activity against Septoria foliar blotch disease of wheat caused by Septoria tritici; conditions: wheat seedlings "Riband", inoculated 24 h after spraying, 2 weeks
Procedure: as §1
Leaves of potted wheat seedlings of the cultivar “Riband” were sprayed to runoff point with an aqueous preparation of active compound which had been prepared from a stock solution made of 10% of active compound, 85% of cyclohexanone and 5% of emulsifier. 24 hours after the spray coating had dried on, they were inoculated with an aqueous spore suspension of Septoria tritici. The suspension contained 2.0×10^6 spores/ml. The test plants were then placed in a greenhouse at 18-22° C. and a relative atmospheric humidity of close to 100%. After 2 weeks, the extent of the development of the disease was determined visually in % infection of the entire leaf area.

Pyrenophora teres = assay: Activity against net blotch of barley caused by Pyrenophora teres; conditions: barley seedlings "Igri", inoculated 24 h after spraying, 6 days
How it was run: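 Potted barley seedlings (cv. Igri) were sprayed to runoff with aqueous compound preparation, then inoculated with P. teres spores 24 h after the spray dried. Plants were kept in a greenhouse at 20-24° C and 95-100% relative humidity, and disease was scored visually after 6 days as % infected leaf area.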

Row | SMILES | % infection of the leaves after application of an aqueous preparation comprising . . . ppm of active compound (Puccinia recondita; 16 ppm) [%] | % infection of the leaves after application of an aqueous preparation comprising . . . ppm of active compound (Puccinia recondita; 63 ppm) [%] | % infection of the leaves after application of an aqueous preparation comprising . . . ppm of active compound (Puccinia recondita; 250 ppm) [%] | % infection of the leaves after application of an aqueous preparation comprising . . . ppm of active compound ([1]; 63 ppm) [%] | % infection of the leaves after application of an aqueous preparation comprising . . . ppm of active compound ([1]; 250 ppm) [%] | % infection of the leaves after application of an aqueous preparation comprising . . . ppm of active compound (Septoria tritici; 16 ppm) [%] | % infection of the leaves after application of an aqueous preparation comprising . . . ppm of active compound (Septoria tritici; 63 ppm) [%] | % infection of the leaves after application of an aqueous preparation comprising . . . ppm of active compound (Septoria tritici; 250 ppm) [%] | % infection of the leaves after application of an aqueous preparation comprising . . . ppm of active compound ([1]; 16 ppm) [%] | % infection of the leaves after application of an aqueous preparation comprising . . . ppm of active compound (Pyrenophora teres; 16 ppm) [%] | % infection of the leaves after application of an aqueous preparation comprising . . . ppm of active compound (Pyrenophora teres; 63 ppm) [%] | % infection of the leaves after application of an aqueous preparation comprising . . . ppm of active compound (Pyrenophora teres; 250 ppm) [%]
1 | CC(C)[C@@H](C)Nc1c(-c2c(F)cccc2Cl)c(Cl)nc2ncnn12 [I.-2] | 15 | 5 | 5 | 40 | 40 | 0 | 0 | 0 | – | – | – | –
2 | CCC(C)Nc1c(-c2c(F)cccc2F)c(Cl)nc2ncnn12 (centres unmarked) [I.-4] | 40 | 20 | 10 | 60 | 60 | 20 | 15 | 3 | 80 | – | – | –
3 | CC(C)C(C)Nc1c(-c2c(Cl)cccc2Cl)c(Cl)nc2ncnn12 (centres unmarked) [I.-8] | – | – | – | – | – | 70 | 30 | 30 | – | 40 | 15 | 15
4 | CC[C@@H](C)Nc1c(-c2c(F)cc(OC)cc2F)c(Cl)nc2ncnn12 [I.-16] | 7 | 0 | – | 40 | 20 | – | 70 | 70 | 40 | – | – | –
5 | COc1cc(F)c(-c2c(Cl)nc3ncnn3c2N[C@H](C)C(C)C)c(F)c1 [I.-17] | – | – | – | 60 | 60 | 10 | 10 | 10 | 60 | – | – | –
6 | CCC(C)Nc1c(-c2c(F)c(F)c(F)c(F)c2F)c(Cl)nc2ncnn12 (centres unmarked) [I.-19] | – | – | – | 7 | 7 | 50 | 10 | 10 | – | – | – | 30
7 | CC(C)[C@@H](C)Nc1c(-c2c(F)c(F)c(F)c(F)c2F)c(Cl)nc2ncnn12 [I.-20] | – | – | – | 20 | 5 | 10 | 10 | 10 | 30 | 30 | 10 | 0
8 | CC(C)C(C)Nc1c(-c2c(F)cccc2Cl)c(Cl)nc2ncnn12 [comparison (S)-amine of I.-2] | 100 | 100 | 100 | 100 | 100 | 90 | 90 | 90 | – | – | – | –
9 | CC(C)[C@H](C)Nc1c(-c2c(Cl)cccc2Cl)c(Cl)nc2ncnn12 [comparison (S)-amine of I.-8] | – | – | – | – | – | 90 | 90 | 90 | – | 100 | 100 | 100
10 | COc1cc(F)c(-c2c(Cl)nc3ncnn3c2N[C@@H](C)C(C)C)c(F)c1 [comparison (S)-amine of I.-17] | – | – | – | 100 | 100 | 90 | 90 | 90 | 100 | – | – | –
11 | CC[C@H](C)Nc1c(-c2c(F)c(F)c(F)c(F)c2F)c(Cl)nc2ncnn12 [comparison (S)-amine of I.-19] | – | – | – | 30 | 30 | 90 | 90 | 90 | – | – | – | 80
12 | CC(C)[C@H](C)Nc1c(-c2c(F)c(F)c(F)c(F)c2F)c(Cl)nc2ncnn12 [comparison (S)-amine of I.-20] | – | – | – | 40 | 40 | 90 | 90 | 90 | 80 | 100 | 40 | 7
13 | CC(Nc1c(-c2ccccc2C(F)(F)F)c(Cl)nc2ncnn12)C(C)(C)C [comparison (S)-amine of I.-26] | – | – | – | – | – | 100 | 100 | 100 | – | – | – | –
14 | CC(Nc1c(-c2ccccc2Cl)c(Cl)nc2ncnn12)C(C)(C)C [comparison (S)-amine of I.-44b] | – | – | – | – | – | 80 | 80 | 80 | – | – | – | –
